# Columns and labels:
# LOX IMIV (melanoma) = assay: NCI 60-cell one-dose antiproliferative screen; type: cell-based, human; details: one dose 10 μM
# [1] = test system: MDA-MB-468 (breast cancer); assay: NCI 60-cell one-dose antiproliferative screen; type: cell-based, human; details: one dose 10 μM
# UO-31 (renal cancer) = assay: NCI 60-cell one-dose antiproliferative screen; type: cell-based, human; details: one dose 10 μM
# SNB-19 (CNS cancer) = assay: NCI 60-cell one-dose antiproliferative screen; type: cell-based, human; details: one dose 10 μM
# SK-MEL-28 (melanoma) = assay: NCI 60-cell one-dose antiproliferative screen; type: cell-based, human; details: one dose 10 μM
# ACHN (renal cancer) = assay: NCI 60-cell one-dose antiproliferative screen; type: cell-based, human; details: one dose 10 μM
# HCT-15 (colon cancer) = assay: NCI 60-cell one-dose antiproliferative screen; type: cell-based, human; details: one dose 10 μM
# HCC-2998 (colon cancer) = assay: NCI 60-cell one-dose antiproliferative screen; type: cell-based, human; details: one dose 10 μM
# [2] = test system: NCI-H226 (NSC lung cancer); assay: NCI 60-cell one-dose antiproliferative screen; type: cell-based, human; details: one dose 10 μM
# MALME-3M (melanoma) = assay: NCI 60-cell one-dose antiproliferative screen; type: cell-based, human; details: one dose 10 μM
# SK-OV-3 (ovarian cancer) = assay: NCI 60-cell one-dose antiproliferative screen; type: cell-based, human; details: one dose 10 μM
# [3] = test system: MDA-MB-231/ATCC (breast cancer); assay: NCI 60-cell one-dose antiproliferative screen; type: cell-based, human; details: one dose 10 μM
# OVCAR-3 (ovarian cancer) = assay: NCI 60-cell one-dose antiproliferative screen; type: cell-based, human; details: one dose 10 μM
# UACC-257 (melanoma) = assay: NCI 60-cell one-dose antiproliferative screen; type: cell-based, human; details: one dose 10 μM
# SNB-75 (CNS cancer) = assay: NCI 60-cell one-dose antiproliferative screen; type: cell-based, human; details: one dose 10 μM
# SN12C (renal cancer) = assay: NCI 60-cell one-dose antiproliferative screen; type: cell-based, human; details: one dose 10 μM
# DU-145 (prostate cancer) = assay: NCI 60-cell one-dose antiproliferative screen; type: cell-based, human; details: one dose 10 μM
# CCRF-CEM (leukemia) = assay: NCI 60-cell one-dose antiproliferative screen; type: cell-based, human; details: one dose 10 μM
# [4] = test system: NCI-H460 (NSC lung cancer); assay: NCI 60-cell one-dose antiproliferative screen; type: cell-based, human; details: one dose 10 μM
# [5] = test system: NCI-H23 (NSC lung cancer); assay: NCI 60-cell one-dose antiproliferative screen; type: cell-based, human; details: one dose 10 μM
# MCF7 (breast cancer) = assay: NCI 60-cell one-dose antiproliferative screen; type: cell-based, human; details: one dose 10 μM
# [6] = test system: NCI-H522 (NSC lung cancer); assay: NCI 60-cell one-dose antiproliferative screen; type: cell-based, human; details: one dose 10 μM
# SF-295 (CNS cancer) = assay: NCI 60-cell one-dose antiproliferative screen; type: cell-based, human; details: one dose 10 μM
# RPMI-8226 (leukemia) = assay: NCI 60-cell one-dose antiproliferative screen; type: cell-based, human; details: one dose 10 μM
# OVCAR-5 (ovarian cancer) = assay: NCI 60-cell one-dose antiproliferative screen; type: cell-based, human; details: one dose 10 μM
# IGROV1 (ovarian cancer) = assay: NCI 60-cell one-dose antiproliferative screen; type: cell-based, human; details: one dose 10 μM
# EKVX (NSC lung cancer) = assay: NCI 60-cell one-dose antiproliferative screen; type: cell-based, human; details: one dose 10 μM
# TK-10 (renal cancer) = assay: NCI 60-cell one-dose antiproliferative screen; type: cell-based, human; details: one dose 10 μM
# 786-0 (renal cancer) = assay: NCI 60-cell one-dose antiproliferative screen; type: cell-based, human; details: one dose 10 μM
# CAKI-1 (renal cancer) = assay: NCI 60-cell one-dose antiproliferative screen; type: cell-based, human; details: one dose 10 μM
# HCT-116 (colon cancer) = assay: NCI 60-cell one-dose antiproliferative screen; type: cell-based, human; details: one dose 10 μM
# A498 (renal cancer) = assay: NCI 60-cell one-dose antiproliferative screen; type: cell-based, human; details: one dose 10 μM
# OVCAR-8 (ovarian cancer) = assay: NCI 60-cell one-dose antiproliferative screen; type: cell-based, human; details: one dose 10 μM
# OVCAR-4 (ovarian cancer) = assay: NCI 60-cell one-dose antiproliferative screen; type: cell-based, human; details: one dose 10 μM
# HT29 (colon cancer) = assay: NCI 60-cell one-dose antiproliferative screen; type: cell-based, human; details: one dose 10 μM
# RXF 393 (renal cancer) = assay: NCI 60-cell one-dose antiproliferative screen; type: cell-based, human; details: one dose 10 μM
# M14 (melanoma) = assay: NCI 60-cell one-dose antiproliferative screen; type: cell-based, human; details: one dose 10 μM
# [7] = test system: A549/ATCC (NSC lung cancer); assay: NCI 60-cell one-dose antiproliferative screen; type: cell-based, human; details: one dose 10 μM
# SK-MEL-2 (melanoma) = assay: NCI 60-cell one-dose antiproliferative screen; type: cell-based, human; details: one dose 10 μM
# [8] = test system: 60 human tumor cell lines; assay: NCI 60-cell one-dose antiproliferative screen, whole panel; type: cell-based; details: Homo sapiens, 60 cell, read-out: Mean inhibition (mean GI%)
# SF-539 (CNS cancer) = assay: NCI 60-cell one-dose antiproliferative screen; type: cell-based, human; details: one dose 10 μM
# SF-268 (CNS cancer) = assay: NCI 60-cell one-dose antiproliferative screen; type: cell-based, human; details: one dose 10 μM
# KM12 (colon cancer) = assay: NCI 60-cell one-dose antiproliferative screen; type: cell-based, human; details: one dose 10 μM
# COLO-205 (colon cancer) = assay: NCI 60-cell one-dose antiproliferative screen; type: cell-based, human; details: one dose 10 μM
# MDA-MB-435 (melanoma) = assay: NCI 60-cell one-dose antiproliferative screen; type: cell-based, human; details: one dose 10 μM
# T-47D (breast cancer) = assay: NCI 60-cell one-dose antiproliferative screen; type: cell-based, human; details: one dose 10 μM
# HOP-62 (NSC lung cancer) = assay: NCI 60-cell one-dose antiproliferative screen; type: cell-based, human; details: one dose 10 μM
# HOP-92 (NSC lung cancer) = assay: NCI 60-cell one-dose antiproliferative screen; type: cell-based, human; details: one dose 10 μM
# [9] = test system: NCI-H322M (NSC lung cancer); assay: NCI 60-cell one-dose antiproliferative screen; type: cell-based, human; details: one dose 10 μM
# [10] = test system: NCI/ADR-RES (ovarian cancer); assay: NCI 60-cell one-dose antiproliferative screen; type: cell-based, human; details: one dose 10 μM
# U251 (CNS cancer) = assay: NCI 60-cell one-dose antiproliferative screen; type: cell-based, human; details: one dose 10 μM
# PC-3 (prostate cancer) = assay: NCI 60-cell one-dose antiproliferative screen; type: cell-based, human; details: one dose 10 μM
# UACC-62 (melanoma) = assay: NCI 60-cell one-dose antiproliferative screen; type: cell-based, human; details: one dose 10 μM
# HS 578T (breast cancer) = assay: NCI 60-cell one-dose antiproliferative screen; type: cell-based, human; details: one dose 10 μM
# SW-620 (colon cancer) = assay: NCI 60-cell one-dose antiproliferative screen; type: cell-based, human; details: one dose 10 μM
smiles,measurement,setting,value
"Cc1ccc(-c2nnc3ccc(NN=Cc4ccccc4)nn23)cc1 [Compound 4d, 6-(2-Benzylidenehydrazinyl)-3-(p-tolyl)-[1,2,4]triazolo[4,3-b]pyridazine]",GI%,LOX IMIV (melanoma),52.47%
same,GI%,[1],— (— GI% is below 15%)
same,GI%,UO-31 (renal cancer),15.52%
same,GI%,SNB-19 (CNS cancer),— (— GI% is below 15%)
same,GI%,SK-MEL-28 (melanoma),— (— GI% is below 15%)
same,GI%,ACHN (renal cancer),— (— GI% is below 15%)
same,GI%,HCT-15 (colon cancer),30.81%
same,GI%,HCC-2998 (colon cancer),— (— GI% is below 15%)
same,GI%,[2],— (— GI% is below 15%)
same,GI%,MALME-3M (melanoma),— (— GI% is below 15%)
same,GI%,SK-OV-3 (ovarian cancer),— (— GI% is below 15%)
same,GI%,[3],— (— GI% is below 15%)
same,GI%,OVCAR-3 (ovarian cancer),69.65%
same,GI%,UACC-257 (melanoma),— (— GI% is below 15%)
same,GI%,SNB-75 (CNS cancer),>100%
same,GI%,SN12C (renal cancer),— (— GI% is below 15%)
same,GI%,DU-145 (prostate cancer),24.06%
same,GI%,CCRF-CEM (leukemia),— (— GI% is below 15%)
same,GI%,[4],31.51%
same,GI%,[5],39.55%
same,GI%,MCF7 (breast cancer),52.06%
same,GI%,[6],— (— GI% is below 15%)
same,GI%,SF-295 (CNS cancer),47.66%
same,GI%,RPMI-8226 (leukemia),19.37%
same,GI%,OVCAR-5 (ovarian cancer),— (— GI% is below 15%)
same,GI%,IGROV1 (ovarian cancer),— (— GI% is below 15%)
same,GI%,EKVX (NSC lung cancer),23.07%
same,GI%,TK-10 (renal cancer),— (— GI% is below 15%)
same,GI%,786-0 (renal cancer),— (— GI% is below 15%)
same,GI%,CAKI-1 (renal cancer),16.69%
same,GI%,HCT-116 (colon cancer),— (— GI% is below 15%)
same,GI%,A498 (renal cancer),— (— GI% is below 15%)
same,GI%,OVCAR-8 (ovarian cancer),— (— GI% is below 15%)
same,GI%,OVCAR-4 (ovarian cancer),30.86%
same,GI%,HT29 (colon cancer),— (— GI% is below 15%)
same,GI%,RXF 393 (renal cancer),— (— GI% is below 15%)
same,GI%,M14 (melanoma),32.66%
same,GI%,[7],— (— GI% is below 15%)
same,GI%,SK-MEL-2 (melanoma),— (— GI% is below 15%)
same,inhibition at 10 µM,[8],18.3%
same,GI%,SF-539 (CNS cancer),19.19%
same,GI%,SF-268 (CNS cancer),42.23%
same,GI%,KM12 (colon cancer),42.77%
same,GI%,COLO-205 (colon cancer),— (— GI% is below 15%)
same,GI%,MDA-MB-435 (melanoma),23.87%
same,GI%,T-47D (breast cancer),— (— GI% is below 15%)
same,GI%,HOP-62 (NSC lung cancer),— (— GI% is below 15%)
same,GI%,HOP-92 (NSC lung cancer),29.46%
same,GI%,[9],— (— GI% is below 15%)
same,GI%,[10],15.93%
same,GI%,U251 (CNS cancer),24.9%
same,GI%,PC-3 (prostate cancer),— (— GI% is below 15%)
same,GI%,UACC-62 (melanoma),— (— GI% is below 15%)
same,GI%,HS 578T (breast cancer),53.45%
same,GI%,SW-620 (colon cancer),— (— GI% is below 15%)

# Source: PMC11420776 (RSC Advances, 2024)
